Reference: paper PMC8041284, “Tunable Methacrylamides for Covalent Ligand Directed Release Chemistry” (Journal of the American Chemical Society, 2021)
Read-outs that look alike come from different tables or passages of the source.

Molecular target: BTK (Homo sapiens, UniProt Q06187)
Assay: biochemical
[1] = read-out: BTK inhibition (%), 0.75 uM BTK, […] probe 3l, 15 min preincubation

Sequence of BTK (Q06187 402-655 limits assumed): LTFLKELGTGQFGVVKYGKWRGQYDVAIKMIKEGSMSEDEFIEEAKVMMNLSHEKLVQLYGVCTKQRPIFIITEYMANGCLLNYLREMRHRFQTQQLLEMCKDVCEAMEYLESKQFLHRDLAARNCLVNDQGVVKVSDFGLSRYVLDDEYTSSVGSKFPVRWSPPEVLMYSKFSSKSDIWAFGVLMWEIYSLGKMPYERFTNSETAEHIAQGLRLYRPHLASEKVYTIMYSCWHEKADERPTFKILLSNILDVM

Structure (SMILES)	inhibition at 10 µM [1]	inhibition at 10 µM (read-out: BTK inhibition (%))
Cc1cnc(C(=O)N[C@H]2CCCCC/C=C\[C@@H]3C[C@@]3(C(=O)NS(=O)(=O)C3CC3)NC(=O)[C@@H]3C[C@@H](Oc4nc5ccccc5c5ccccc45)CN3C2=O)cn1 [PCM-0216057]	53.3%	
CC(C)(N)C(=O)N[C@H](COCc1ccccc1)C(=O)N1CCC2(CC1)CN(S(C)(=O)=O)c1ccccc12 [PCM-0216059]	-11.7%	
COc1cc2c(c(OC)c1OC)-c1c(cc3c(c1OC)OCO3)C[C@H](C)[C@](C)(O)[C@H]2OC(=O)c1ccccc1 [PCM-0216060]	3.9%	
C[n+]1c2ccccc2nc2ccccc21 [PCM-0216061]	64.9%	
CC(=O)OCC1=C(C(=O)O)N2C(=O)[C@@H](NC(=O)CSC(=NC(C)C)NC(C)C)[C@H]2SC1 [PCM-0216063]	4.7%	
O=C1[C@H]2CCCC[C@H]2C(=O)N1CCCCN1CCN(c2nsc3ccccc23)CC1 [PCM-0216064]	-9.3%	
COC(=O)c1cc(OC)c2c(c1-c1c(C(=O)OC)cc(OC)c3c1OCO3)OCO2 [PCM-0216065]	2.8%	
NC(=O)CN1CC(c2ccccc2)CC1=O (centres unmarked) [PCM-0216067]		10%
O=C(C[S+]([O-])C(c1ccccc1)c1ccccc1)NO (centres unmarked) [PCM-0216068]		-2.3%
C[C@]12CC[C@H]3[C@@H](CCC4=CC(=O)C=C[C@@]43C)[C@@H]1CC[C@@H]2O [PCM-0216069]		-13.1%
CC[C@H]1OC(=O)[C@H](C)[C@@H](O[C@H]2C[C@@](C)(OC)[C@@H](O)[C@H](C)O2)[C@H](C)[C@@H](O[C@@H]2O[C@H](C)C[C@H](N(C)C)[C@H]2O)[C@](C)(O)C[C@@H](C)C(=O)[C@H](C)[C@@H](O)[C@]1(C)O [PCM-0216070]	10%	
N=c1cc(N2CCCCC2)nc(N)n1OS(=O)(=O)O [PCM-0216071]	-9.3%	
CCOC(=O)N1CCN(c2ccc(OC[C@H]3CO[C@](Cn4ccnc4)(c4ccc(Cl)cc4Cl)O3)cc2)CC1 [PCM-0216072]	8.5%	
COc1cccc(/C=N/N(C(=O)C(F)(F)F)c2ccc(C)cc2C)c1 [PCM-0216073]	13.9%	
FC(F)(F)Oc1ccc(-c2ccc3nnc(C(F)(F)F)n3c2)cc1 [PCM-0216074]	7.7%	
Cc1c(N[C@@H](c2nnc(-c3ccc(C#N)cc3)o2)[C@H](C)O)ccc(C#N)c1Cl [PCM-0216075]		17.8%
Cc1cc(-c2cc(C)c(NCCCS(=O)(=O)O)c(C)c2)cc(C)c1N [PCM-0216076]	7.7%	
COc1ccc(C(=O)C(=O)c2ccc(OC)cc2)cc1 [PCM-0216078]	24.7%	
O=c1oc2cc(O)ccc2c2ccc(O)cc12 [PCM-0216079]	32.4%	
O=C1C(=Cc2cccnc2)C(=O)c2ccccc21 [PCM-0216080]	20.8%	
COc1c(-c2ccc3cc(NS(C)(=O)=O)ccc3c2)cc(-n2ccc(=O)[nH]c2=O)cc1C(C)(C)C [PCM-0216081]	73.4%	
Nc1cc(N)c(N)cc1N [PCM-0216082]	31.7%	
CO/N=C(\C(=O)N[C@@H]1C(=O)N2C(C(=O)[O-])=C(C[n+]3cccc4c3CCCC4)CS[C@H]12)c1csc(N)n1 [PCM-0216083]	9.3%	
C/C(=C(\CCOC(=O)c1ccccc1)SC(=O)c1ccccc1)N(C=O)Cc1cnc(C)nc1N [PCM-0216084]	4.6%	
O=C(c1cccc(Br)c1)N1CCC(N2CCCC2)CC1 [PCM-0216085]	-17.8%	

Structure (SMILES)	inhibition at 10 µM [1]	inhibition at 10 µM (read-out: BTK inhibition (%))
CC[C@H]1OC(=O)[C@@](C)(F)C(=O)[C@H](C)[C@@H](O[C@@H]2O[C@H](C)C[C@H](N(C)C)[C@H]2O)[C@](C)(OC)C[C@@H](C)C(=O)[C@H](C)[C@H]2N(CCCCn3cc(-c4cccc(N)c4)nn3)C(=O)O[C@]12C [PCM-0216086]	-22.1%	
O=C1C(=Cc2ccncc2)CCCC1=Cc1ccncc1 [PCM-0216087]	-4.1%	
CCCCCCOc1cc(C)c(O)c(C)c1C [PCM-0216088]	-25.5%	
COc1ccc(-c2cc(=O)c3c(O)cc(O)cc3o2)cc1 [PCM-0216090]	16.6%	
CC(C)n1c(=O)n(C)c2cnc3cc(F)c(-c4ccc(OCCCN5CCCCC5)nc4)cc3c21 [PCM-0216091]	-13.9%	
C[C@H](N=C(NC#N)Nc1cccc2ncccc12)c1ccccc1 [PCM-0216092]	-13.1%	
CCCCOC(=O)c1ccccc1Nc1cccc(C(F)(F)F)c1 [PCM-0216094]	21.4%	
CC1(C)C(=O)N(c2ccc(C#N)c(C(F)(F)F)c2)C(=O)N1CCCCO [PCM-0216095]		11.6%
Cc1cc(NS(=O)(=O)c2ccc(N)cc2)nc(C)n1 [PCM-0216097]	11%	
O=C1C(N(CO)C(=O)NCO)N(CO)C(=O)N1CO (centres unmarked) [PCM-0216098]	-5.4%	
CC1(C)S[C@@H]2[C@H](NC(=O)C(c3ccccc3)S(=O)(=O)O)C(=O)N2[C@H]1C(=O)O (some centres unmarked) [PCM-0216099]	7.7%	
O=C1C[C@@H]2[C@@H](CO)[C@H](O)C[C@@H]2O1 [PCM-0216100]	-8.5%	
O=C(CO)[C@@H](O)[C@H](O)[C@@H](O)CO [PCM-0216101]	-4.3%	
CCCCCC1=C(C)CCC1=O [PCM-0216102]	-16.2%	
COc1cc(C(=O)O)ccc1O [PCM-0216103]	3.1%	
CC(=O)CCc1ccc(OC(C)=O)cc1 [PCM-0216104]	-10.8%	
O=C(O)c1cn(C2CC2)c2cc(Cl)c(F)cc2c1=O [PCM-0216105]	7.7%	
CCCCCCC(O)C(=O)O (centres unmarked) [PCM-0216106]	-10%	
C[Si](C)(C)N=C(O[Si](C)(C)C)C(F)(F)F [PCM-0216107]	-6.9%	
Fc1ccc(Cn2c(Cl)nc3ccccc32)cc1 [PCM-0216108]	-52.5%	
COc1cccc(C(N)=O)c1 [PCM-0216109]	2.3%	
Nc1ccc(O)cc1 [PCM-0216110]	82.6%	
O=C1CCN(c2ccccc2)N1 [PCM-0216111]	-12.4%	
CC(C)(C)C(=O)N1N=CC[C@H]1c1ccccc1 [PCM-0216112]	13.8%	
O=C(O)CC(C(=O)O)n1c(O)c(C2=c3cc(Br)ccc3=NC2=O)sc1=S (centres unmarked) [PCM-0216114]	3.1%	

Structure (SMILES)	inhibition at 10 µM [1]	inhibition at 10 µM (read-out: BTK inhibition (%))
COc1cc2c(Oc3ccc4[nH]c(C)cc4c3F)ccnc2cc1OCC1(N)CC1 [PCM-0216115]	39.4%	
Cn1cc(-c2cc(Oc3cc(F)c(NC(=O)C4(C(=O)Nc5ccccc5)CC4)cc3F)ccn2)cn1 [PCM-0216116]	88.8%	
COCCNc1cc(NC(=O)N2CCCc3cc(CN4CCN(C)CC4=O)c(C=O)nc32)ncc1C#N [PCM-0216117]	-16.2%	
COC(=O)CC1CC(c2ccc(O)cc2)=NO1 (centres unmarked) [PCM-0216118]	-16.6%	
O=Cc1ccc(CO)o1 [PCM-0216119]	-2.3%	
C/C=C1\C(=O)C[C@H]2[C@@H]3CCC4=CC(=O)CC[C@]4(C)[C@H]3CC[C@]12C [PCM-0216120]	-1.6%	
C=C1C[C@@]23CC[C@H]4[C@@](C)(CCC[C@@]4(C)C(=O)O[C@@H]4O[C@H](CO)[C@@H](O)[C@H](O)[C@H]4O)[C@@H]2CC[C@]1(O[C@@H]1O[C@H](CO)[C@@H](O)[C@H](O)[C@H]1O[C@@H]1O[C@H](CO)[C@@H](O)[C@H](O)[C@H]1O)C3 [PCM-0216121]	-27.8%	
Cc1onc(-c2c(F)cccc2Cl)c1C(=O)N[C@@H]1C(=O)N2[C@@H]1SC(C)(C)[C@@H]2C(=O)O [PCM-0216122]	-1.6%	
CC(C)c1cc2c(cc1S(=O)(=O)O)[C@@]1(C)CCC[C@@](C)(C(=O)O)[C@@H]1CC2 [PCM-0216123]	3.9%	
CO/N=C(\C(=O)N[C@@H]1C(=O)N2C(C(=O)OCOC(=O)C(C)(C)C)=C(C)CS[C@H]12)c1csc(N)n1 [PCM-0216124]	-4.7%	
N#Cc1c(N)nc(NC2CC2)nc1N [PCM-0216125]	14%	
COc1ccc2c(c1OC)CN1CCc3cc4c(cc3C1C2)OCO4 (centres unmarked) [PCM-0216126]	13.1%	
Cc1cc(S(=O)(=O)O)c2c(C)ccc(C(C)C)cc1-2 [PCM-0216127]	37.2%	
O=C1CCCC(=O)C1C(=O)c1ccc(C(F)(F)F)cc1[N+](=O)[O-] [PCM-0216128]	-10%	
Cn1c(O)c(C2=c3ccccc3=NC2=O)c2ccccc21 [PCM-0216129]	-17%	
COc1cc2ncnc(Nc3ccc(F)c(Cl)c3)c2cc1O [PCM-0216130]	5.4%	
O=C(CCCCc1ccc2c(c1)OCO2)N1CCCCC1 [PCM-0216131]	-17.8%	
COc1ccc(C=O)c(O)c1 [PCM-0216133]	5.4%	
O=c1cc(-c2ccccc2)oc2c1ccc1ccccc12 [PCM-0216134]	-0.8%	
CC1=C[C@H]2[C@@H](CC1)[C@H](C)CC[C@H]2[C@@H](C)C(=O)O [PCM-0216135]	-3.1%	
CC(COc1ccccc1Cc1ccccc1)N1CCCCC1 (centres unmarked) [PCM-0216136]	-17%	
CN(CCN1CCC(OC(=O)Nc2ccccc2-c2ccccc2)CC1)C(=O)c1ccc(CN2CCC(C(N)=O)CC2)cc1 [PCM-0216137]	-10%	
CC(C)(C)C(O)/C=C/c1ccc2c(c1)OCO2 (centres unmarked) [PCM-0216138]	-4.6%	
Cc1ccccc1N1CCN(CCc2nnc3n2CCCC3)CC1 [PCM-0216139]	3.9%	
